Test [1] concerns synthesis of LTB4 in human whole blood. Briefly: human whole blood LTB4 production inhibition assay. The format is cell-based. The settings on record: Homo sapiens, heparinized human whole blood, calcimycin 20 μM; read-out: hWB LTB4 IC50. The procedure, abridged: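 LTB4 levels in plasma were measured by antibody-based HTRF after heparinized human whole blood, pretreated with compound (15 min, 37° C), was challenged with 20 μM calcimycin for 30 min at 37° C.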

The target in test [2] is T1, recombinant human FLAP protein (Homo sapiens, UniProt P20292).
T1 construct: made in house; host or cells: Sf9 insect cells (100,000 x g membrane fraction)
T1 sequence (P20292 1-161): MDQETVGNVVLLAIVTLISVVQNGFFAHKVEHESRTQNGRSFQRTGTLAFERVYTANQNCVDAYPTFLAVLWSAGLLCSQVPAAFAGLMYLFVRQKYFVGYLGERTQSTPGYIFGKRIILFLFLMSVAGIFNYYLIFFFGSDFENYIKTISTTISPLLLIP
Nature of the test: FLAP binding assay (Scintillation Proximity Assay, displacement of [125I]L-691,831). The settings on record: recombinant human FLAP membranes, [125I]L-691,831 probe; read-out: FLAP SPA IC50. Summed up: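 WGA scintillation proximity beads were stirred 1 h with 5 μg of FLAP-containing membrane protein. The membranes came from baculovirus Sf9 cells, Dounce-lysed and spun to a 100,000×g pellet in buffer at pH 7.5.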
In general terms: SPA uses beads or plates that emit light when radiolabelled molecules are held near them.

In patent US8580829B2 (Boehringer Ingelheim International GmbH, priority 2010, dated 2013) one finds IC50 data, which are given here for 27 compounds.

Molecules are shown by their SMILES.

By IC50 is commonly meant the concentration at which inhibition is half-maximal.

Turning to `CS(=O)(=O)C1CCN(c2ccc(-c3nc(C4(c5ccc(-c6cnc(N)nc6)cc5)CCC4)no3)cn2)C1` (stereo not drawn) [Example 110, 5-[4-(1-{5-[6-(3-Methanesulfonyl-pyrrolidin-1-yl)-pyridin-3-yl]-1,2,4-oxadiazol-3-yl}-cyclobutyl)-phenyl]-pyrimidin-2-ylamine], the results for the IC50 in test [1] and in test [2] were 110 nM and 0.92 nM, respectively.
For `Nc1ncc(-c2ccc(C3(c4noc([C@H]5CCCCN5)n4)CCC3)cc2)cn1` [Example 282, 5-{4-[1-((R)-5-Piperidin-2-yl-[1,2,4]oxadiazol-3-yl)-cyclobutyl]-phenyl}-pyrimidin-2-ylamine], in that order: 1100 nM and 26 nM.
On to `Nc1ncc(-c2ccc(C3(c4noc(-c5ccc6[nH]ncc6c5)n4)CCC3)cc2)cn1` [Example 190, 5-(4-{1-[5-(1H-Indazol-5-yl)-1,2,4-oxadiazol-3-yl]-cyclobutyl}-phenyl)-pyrimidin-2-ylamine], for which the IC50 in test [1] came to 27 nM; in test [2], 1.2 nM.
As to `CN(C(=O)Cn1cc(-c2nc(C3(c4ccc(-c5cnc(N)nc5)cc4)CCC3)no2)cn1)C1CCCOC1` (stereo not drawn) [Example 247, 2-[4-(3-{1-[4-(2-Amino-pyrimidin-5-yl)-phenyl]-cyclobutyl}-[1,2,4]oxadiazol-5-yl)-pyrazol-1-yl]-N-methyl-N-(tetrahydro-pyran-3-yl)-acetamide], the IC50 was 88 nM in test [1] and 8.2 nM in test [2].
For `CS(=O)(=O)C1CCN(c2cnc(-c3nc(C4(c5ccc(-c6cnc(N)nc6)cc5)CCC4)no3)cn2)C1` (stereo not drawn) [Example 203, 5-[4-(1-{5-[5-(3-Methanesulfonyl-pyrrolidin-1-yl)-pyrazin-2-yl]-1,2,4-oxadiazol-3-yl}-cyclobutyl)-phenyl]-pyrimidin-2-ylamine], the IC50 in test [1] was determined as 130 nM; in test [2] it was 1.9 nM.
Regarding `CN(CC1CCOCC1)c1nc(C2(c3ccc(-c4cnc(N)nc4)cc3)CCC2)no1` [Example 292, 5-[4-(1-{5-[Methyl-(tetrahydro-pyran-4-ylmethyl)-amino]-[1,2,4]oxadiazol-3-yl}-cyclobutyl)-phenyl]-pyrimidin-2-ylamine], the half-maximal inhibitory concentration (IC50) in test [1] turned out to be 330 nM; in test [2] it was 22 nM.
For `N#CCn1cc(-c2nc(C3(c4ccc(-c5cnc(N)nc5)cc4)CCC3)no2)cn1` [Example 238, [4-(3-{1-[4-(2-Amino-pyrimidin-5-yl)-phenyl]-cyclobutyl}-[1,2,4]oxadiazol-5-yl)-pyrazol-1-yl]-acetonitrile], in that order: 37 nM and 1 nM.
Take `Nc1ncc(-c2ccc(C3(c4noc(-c5ccc(N6CCNCC6)nc5)n4)CCC3)cc2)cn1` [Example 116, 5-(4-{1-[5-(6-piperazin-1-yl-pyridin-3-yl)-1,2,4-oxadiazol-3-yl]-cyclobutyl}-phenyl)-pyrimidin-2-ylamine]: the IC50 in test [1] amounted to 150 nM; in test [2] it was 1.8 nM.
For `Nc1ncc(-c2ccc(C3(c4noc(-c5c[nH]cn5)n4)CCC3)cc2)cn1` [Example 153, 5-(4-{1-[5-(1H-Imidazol-4-yl)-1,2,4-oxadiazol-3-yl]-cyclobutyl}-phenyl)-pyrimidin-2-ylamine], the figures for the IC50 in test [1] and in test [2] were 270 nM and 2.5 nM, respectively.
Turning to `CN(CCO)c1cc(-c2nc(C3(c4ccc(-c5cnc(N)nc5)cc4)CCC3)no2)ccn1` [Example 94, 2-{[4-(3-{1-[4-(2-amino-pyrimidin-5-yl)-phenyl]-cyclobutyl}-1,2,4-oxadiazol-5-yl)-pyridin-2-yl]-methyl-amino}-ethanol], the IC50 was 560 nM in test [1] and 6.1 nM in test [2].
In the case of `N#CC1CCN(c2nc(C3(c4ccc(-c5cnc(N)nc5)cc4)CCC3)no2)CC1` [Example 291, 1-(3-{1-[4-(2-Amino-pyrimidin-5-yl)-phenyl]-cyclobutyl}-[1,2,4]oxadiazol-5-yl)-piperidine-4-carbonitrile], the IC50 in test [1] was 210 nM; in test [2], 19 nM.
As for `CN(C)C(=O)C(C)(C)Cn1cc(-c2nc(C3(c4ccc(-c5cnc(N)nc5)cc4)CCC3)no2)cn1` [Example 129, 3-[4-(3-{1-[4-(2-Amino-pyrimidin-5-yl)-phenyl]-cyclobutyl}-1,2,4-oxadiazol-5-yl)-pyrazol-1-yl]-2,2,N,N-tetramethyl-propionamide], the IC50 in test [1] worked out at 140 nM; in test [2] it was 3.9 nM.
As to `CN(C)C(=O)Cn1cccc(-c2nc(C3(c4ccc(-c5cnc(N)nc5)cc4)CCC3)no2)c1=O` [Example 119, 2-[3-(3-{1-[4-(2-Amino-pyrimidin-5-yl)-phenyl]-cyclobutyl}-1,2,4-oxadiazol-5-yl)-2-oxo-2H-pyridin-1-yl]-N,N-dimethyl-acetamide], the IC50 in test [1] amounted to 790 nM; in test [2], 40 nM.
On the same counts, the results for `Nc1ncc(-c2ccc(C3(c4noc(-c5ccc(Cl)cc5)n4)CCC3)cc2)cn1` [Example 46, 5-(4-{1-[5-(4-Chloro-phenyl)-1,2,4-oxadiazol-3-yl]-cyclobutyl}-phenyl)-pyrimidin-2-ylamine] are 1500 nM and 7.5 nM.
As for `Cn1cnc(-c2nc(C3(c4ccc(-c5cnc(N)nc5)cc4)CCC3)no2)c1` [Example 23], the IC50 in test [1] was 73 nM; in test [2] it was 4.2 nM.
For `Nc1ncc(-c2ccc(C3(c4noc(N5CCCC(CO)C5)n4)CCC3)cc2)cn1` (stereo not drawn) [Example 286, [1-(3-{1-[4-(2-Amino-pyrimidin-5-yl)-phenyl]-cyclobutyl}-[1,2,4]oxadiazol-5-yl)-piperidin-3-yl]-methanol], in that order: 200 nM and 14 nM.
On to `COCCNc1ccc(-c2nc(C3(c4ccc(-c5cnc(N)nc5)cc4)CCC3)no2)cn1` [Example 182, 5-[4-(1-{5-[6-(2-Methoxy-ethylamino)-pyridin-3-yl]-1,2,4-oxadiazol-3-yl}-cyclobutyl)-phenyl]-pyrimidin-2-ylamine], for which the IC50 was 40 nM in test [1] and 1.1 nM in test [2].
As for `CCNC(=O)c1nc(C2(c3ccc(-c4cnc(N)nc4)cc3)CCC2)no1` [Example 13, 3-{1-[4-(2-Amino-pyrimidin-5-yl)-phenyl]-cyclobutyl}-1,2,4-oxadiazole-5-carboxylic acid ethylamide], the figures for the IC50 in test [1] and in test [2] were > 5000 nM and 170 nM, respectively.
`Cc1nc(-c2ccc(C3(c4noc(-c5cnn(C)c5)n4)CCC3)cc2)cnc1N` [Example 222, 3-Methyl-5-(4-{1-[5-(1-methyl-1H-pyrazol-4-yl)-[1,2,4]oxadiazol-3-yl]-cyclobutyl}-phenyl)-pyrazin-2-ylamine]: the figures for the IC50 in test [1] and in test [2] were 44 nM and 2.2 nM, respectively.
`Nc1ncc(-c2ccc(C3(c4noc(C5CCCCN5)n4)CCC3)cc2)cn1` (stereo not drawn) [Example 283, 5-{4-[1-(5-Piperidin-2-yl-[1,2,4]oxadiazol-3-yl)-cyclobutyl]-phenyl}-pyrimidin-2-ylamine]: the results for the IC50 in test [1] and in test [2] were 1400 nM and 60 nM, respectively.
For the compound `Cn1cc(-c2nc(C3(c4ccc(-c5cnc(N)nc5)cc4)CC3)no2)cn1` [Example 257, 5-(4-{1-[5-(1-Methyl-1H-pyrazol-4-yl)-[1,2,4]oxadiazol-3-yl]-cyclopropyl}-phenyl)-pyrimidin-2-ylamine], the IC50 came to 2200 nM in test [1] and 100 nM in test [2].
As to `COCCNc1cc(-c2nc(C3(c4ccc(-c5cnc(N)nc5)cc4)CCC3)no2)ccn1` [Example 97, 5-[4-(1-{5-[2-(2-Methoxy-ethylamino)-pyridin-4-yl]-1,2,4-oxadiazol-3-yl}-cyclobutyl)-phenyl]-pyrimidin-2-ylamine], the IC50 in test [1] was 92 nM; in test [2], 2.9 nM.
On the same counts, the results for `COc1ccc(-c2nc(C3(c4ccc(-c5cnc(N)nc5)cc4)CCC3)no2)cc1OC` [Example 50, 5-(4-{1-[5-(3,4-Dimethoxy-phenyl)-1,2,4-oxadiazol-3-yl]-cyclobutyl}-phenyl)-pyrimidin-2-ylamine] are 490 nM and 4.4 nM.
Consider `Nc1ncc(-c2ccc(C3(c4noc(-c5cc[nH]n5)n4)CCC3)cc2)cn1` [Example 93, 5-(4-{1-[5-(1H-Pyrazol-3-yl)-1,2,4-oxadiazol-3-yl]-cyclobutyl}-phenyl)-pyrimidin-2-ylamine], for which the IC50 came out at 160 nM in test [1] and 2.4 nM in test [2].
For `CS(=O)(=O)CCNc1ccc(-c2nc(C3(c4ccc(-c5cnc(N)nc5)cc4)CCC3)no2)cn1` [Example 108, 5-[4-(1-{5-[6-(2-Methanesulfonyl-ethylamino)-pyridin-3-yl]-1,2,4-oxadiazol-3-yl}-cyclobutyl)-phenyl]-pyrimidin-2-ylamine], in that order: 110 nM and 1.3 nM.
For `Nc1ncc(-c2ccc(C3(c4noc(-c5ccccn5)n4)CCOCC3)cc2)cn1` [Example 145, 5-{4-[4-(5-pyridin-2-yl-1,2,4-oxadiazol-3-yl)-tetrahydro-pyran-4-yl]-phenyl}-pyrimidin-2-ylamine], in that order: > 5000 nM and 78 nM.
On to `CNc1ncc(-c2ccc(C3(c4noc(-c5cnn(CC(=O)N(C)C)c5)n4)CCC3)cc2)cn1` [Example 276, N,N-Dimethyl-2-[4-(3-{1-[4-(2-methylamino-pyrimidin-5-yl)-phenyl]-cyclobutyl}-[1,2,4]oxadiazol-5-yl)-pyrazol-1-yl]-acetamide], for which the IC50 worked out at 110 nM in test [1] and 7 nM in test [2].
